Measured values: patent US4470974A, “Gastric cytoprotection with L-363,586” (Merck & Co., Inc., priority 1983, dated 1984)
Like-named read-outs stand apart in the source and are kept apart here.

Key:
S.D. rat = assay type: in vivo; conditions: for Gastric Ulcers % Inhibition / Gastric Ulcers Mean Score + SEM (number of ulcers): 4 hours after indomethacin; for dose at which significant ulcer reduction was observed: administered simultaneously with indomethacin
Protocol: Indomethacin, 20 mg/kg p.o., was used to induce ulcers in the 24 hr. fasted S.D. rat. […]
The number of ulcers for twenty-six (i.p.) and fifteen (p.o.) aqueous vehicle-dosed control animals in the indomethacin ulcer assay were so close, (23.0±2.2 S.E.M. i.p.; 18.1±1.6 S.E.M. p.o.), that the data from each experimental dosage group were pooled for group statistical analysis by way of Student's "t" test. FIG. 1 indicates the number of ulcers resulting from indomethacin at 20 mg/kg p.o., when either 0.5% (wt.) aqueous methylcellulose vehicle or L-363,586 was co-administered. The bold-faced numbers at the bottom of each column represent the number of rats used for each value, while the dose, in mg/kg, is noted at the top of each column. […] Higher i.p. doses, from 0.0016 to 0.1 mg/kg, thereafter, inhibited ulcer formation by 80% to 94%.

[1] = system: Sprague-Dawley (S.D.) rats; assay type: in vivo, rat; conditions: for Gastric Lesions % Inhibition / Gastric Lesions Mean Score + SEM: 60 minutes after ethanol
Protocol: Twenty-four hr. fasted Sprague-Dawley (S.D.) rats were perorally (p.o.) dosed with 1.0 ml absolute ethanol. […] One hour later, the animals were sacrificed and stomach mucosae were examined for resulting lesions.

[2] = 0.0001 mg/kg i.p. immediately following 20 mg/kg p.o. indomethacin
[3] = 0.001 mg/kg i.p. immediately following 20 mg/kg p.o. indomethacin
[4] = 0.01 mg/kg i.p. immediately following 20 mg/kg p.o. indomethacin
[5] = 0.1 mg/kg i.p. immediately following 20 mg/kg p.o. indomethacin
[6] = 0.22 mg/kg p.o. coadministered with 1.0 ml 100% ethanol
[7] = 0.44 mg/kg p.o. coadministered with 1.0 ml 100% ethanol
[8] = 1.0 mg/kg p.o. coadministered with 1.0 ml 100% ethanol
[9] = 2.2 mg/kg p.o. coadministered with 1.0 ml 100% ethanol
[10] = 4.4 mg/kg p.o. coadministered with 1.0 ml 100% ethanol
[11] = 0.01 mg/kg p.o. simultaneously with indomethacin 20 mg/kg p.o.
[12] = 0.1 mg/kg p.o. simultaneously with indomethacin 20 mg/kg p.o.
[13] = 1.0 mg/kg p.o. simultaneously with indomethacin 20 mg/kg p.o.

Structure (SMILES): C[C@H](N)C(=O)NCC(=O)N[C@H]1CSSC[C@@H](C(=O)O)NC(=O)[C@H](CO)NC(=O)[C@H]([C@@H](C)O)NC(=O)[C@H](Cc2ccccc2)NC(=O)[C@H]([C@@H](C)O)NC(=O)[C@H](CCCCN)NC(=O)[C@H](Cc2c[nH]c3ccccc23)NC(=O)[C@H](Cc2ccccc2)NC(=O)[C@H](Cc2ccccc2)NC(=O)[C@H](CC(N)=O)NC(=O)[C@H](CCCCN)NC1=O [somatostatin, reference compound]
- Gastric Ulcers % Inhibition (S.D. rat; [2]): -9.3%
- Gastric Ulcers Mean Score + SEM (number of ulcers) (S.D. rat; [2]): 22.4 ± 3.8
- Gastric Ulcers % Inhibition (S.D. rat; [3]): 2.4%
- Gastric Ulcers Mean Score + SEM (number of ulcers) (S.D. rat; [3]): 21.0 ± 2.4
- Gastric Ulcers % Inhibition (S.D. rat; [4]): 16.1%
- Gastric Ulcers Mean Score + SEM (number of ulcers) (S.D. rat; [4]): 17.2 ± 2.3
- Gastric Ulcers % Inhibition (S.D. rat; [5]): 5.9%
- Gastric Ulcers Mean Score + SEM (number of ulcers) (S.D. rat; [5]): 19.3 ± 3.3
- Gastric Ulcers Mean Score + SEM (number of ulcers) (S.D. rat; 0.5 mg/kg i.p. immediately following 20 mg/kg p.o. indomethacin): 7.7 ± 3.6
- Gastric Ulcers Mean Score + SEM (number of ulcers) (S.D. rat; 1.0 mg/kg i.p. immediately following 20 mg/kg p.o. indomethacin): 11.0 ± 3.0
- effectiveness in the peroral (p.o.) indomethacin-induced ulcer assay (S.D. rat; doses up to 0.1 mg/kg i.p.): not effective

Structure (SMILES): CC(C)[C@@H]1NC(=O)[C@H](CCCCN)NC(=O)[C@@H](Cc2c[nH]c3ccccc23)NC(=O)[C@H](Cc2ccc(O)cc2)NC(=O)[C@H](C)N(C)C(=O)[C@H](Cc2ccccc2)NC1=O [L-363,586, cyclo-(N-methyl-Ala-Tyr-d-Trp-Lys-Val-Phe)]
- Gastric Lesions % Inhibition [1, 6]: 8.0%
- Gastric Lesions Mean Score + SEM [1, 6]: 2.3 ± 0.3
- Gastric Lesions % Inhibition [1, 7]: 28.0%
- Gastric Lesions Mean Score + SEM [1, 7]: 1.8 ± 0.4
- Gastric Lesions % Inhibition [1, 8]: 28.0%
- Gastric Lesions Mean Score + SEM [1, 8]: 1.8 ± 0.3
- Gastric Lesions % Inhibition [1, 9]: 40.0%
- Gastric Lesions Mean Score + SEM [1, 9]: 1.5 ± 0.4
- Gastric Lesions % Inhibition [1, 10]: 60.0%
- Gastric Lesions Mean Score + SEM [1, 10]: 1.0 ± 0.3
- prophylactic effect on ethanol-induced lesions ([1]; 0.037 to 3.0 mg/kg p.o. fifteen min. prior to 1.0 ml absolute ethanol, examined one hour later): No prophylactic effect
- dose significantly effective in protecting against ethanol-induced lesions ([1]; p.o. simultaneously with 100% ethanol, lowest such dose): 0.44 mg/kg
- reduction of the number of ulcers (S.D. rat; 0.00001 mg/kg (10 nanograms/kg) i.p. immediately following indomethacin 20 mg/kg p.o.): 58.3%
- % Inhibition of Gastric Ulcers (S.D. rat; [11]): -2.8%
- Number of Gastric Ulcers M + S.E.M. (S.D. rat; [11]): 18.6 ± 4.4
- % Inhibition of Gastric Ulcers (S.D. rat; [12]): 50.3%
- Number of Gastric Ulcers M + S.E.M. (S.D. rat; [12]): 9.0 ± 1.9
- % Inhibition of Gastric Ulcers (S.D. rat; [13]): 83.4%
- Number of Gastric Ulcers M + S.E.M. (S.D. rat; [13]): 3.0 ± 1.3
- reduction in gastric mucosal ulcers (S.D. rat; administered either p.o. or i.p.): dose-dependent reduction
- dose at which significant ulcer reduction was observed (S.D. rat; i.p.): 10 nanograms per kilogram
- further reduction of damage with increasing dose (S.D. rat; increasing log-dose amounts from 0.00001 to 0.001 mg/kg i.p., indomethacin 20 mg/kg p.o.): did not effectively reduce the damage any further
- dose at which significant ulcer reduction was observed (S.D. rat; p.o.): 0.1 mg/kg
